Data published in the OligoGym collection.
HELM strings list units from the 5' end as sugar, base in round brackets, then linkage (d deoxyribose, r ribose, m 2'-O-methyl, p phosphodiester). Strings are as the collection lists them; they lack the last nucleoside at the 3' end of the tested compound. [moe] = 2'-O-(2-methoxyethyl) (MOE); [sp] = phosphorothioate linkage; [m5C] = 5-methylcytosine

Molecular target: UBE3A-ATS
Assay: mouse, dose not given
Settings: ASO

Work on “RNA1{[moe](A)[sp].[moe](G)p.[moe](G)p.[moe](T)p.[moe](G)p.d(T)[sp].d([m5C])[sp].d(T)[sp].d(T)[sp].d(A)[sp].d(T)[sp].d(A)[sp].d(T)[sp].d([m5C])[sp].d(T)[sp].[moe](A)p.[moe](T)p.[moe](G)[sp].[moe](A)}$$$$ (last 3' nucleoside missing)” yielded a 3 h FOB score of 0 score 0-7.

With “RNA1{[moe](A)[sp].[moe](G)p.[moe](G)p.[moe](T)p.[moe]([m5C])p.[moe](A)p.d(A)[sp].d([m5C])[sp].d([m5C])[sp].d(A)[sp].d(A)[sp].d(T)[sp].d(T)[sp].d(T)[sp].d(G)[sp].d([m5C])[sp].[moe](T)p.[moe](A)[sp].[moe](T)}$$$$ (last 3' nucleoside missing)” the 3 h FOB score was 5.3 score 0-7.

For “RNA1{[moe](A)[sp].[moe](G)p.[moe](G)p.[moe](T)p.[moe]([m5C])p.d(A)[sp].d(A)[sp].d([m5C])[sp].d([m5C])[sp].d(A)[sp].d(A)[sp].d(T)[sp].d(T)[sp].d(T)[sp].d(G)[sp].[moe]([m5C])p.[moe](T)p.[moe](A)[sp].[moe](T)}$$$$ (last 3' nucleoside missing)”, the 3 h FOB score was 5.3 score 0-7.

“RNA1{[moe](A)[sp].[moe](G)p.[moe](G)p.[moe](T)p.d([m5C])[sp].d(A)[sp].d(A)[sp].d([m5C])[sp].d([m5C])[sp].d(A)[sp].d(A)[sp].d(T)[sp].d(T)[sp].d(T)[sp].[moe](G)p.[moe]([m5C])p.[moe](T)p.[moe](A)[sp].[moe](T)}$$$$ (last 3' nucleoside missing)” was tested, and the 3 h FOB score was 1 score 0-7.

In the case of “RNA1{[moe](A)[sp].[moe](G)p.[moe](G)p.[moe]([m5C])p.[moe](A)p.d(A)[sp].d(T)[sp].d(G)[sp].d(G)[sp].d(A)[sp].d([m5C])[sp].d(T)[sp].d(T)[sp].d(A)[sp].d(G)[sp].[moe](T)p.[moe](A)p.[moe]([m5C])[sp].[moe](A)}$$$$ (last 3' nucleoside missing)”, the 3 h FOB score is reported as 4 score 0-7.

“RNA1{[moe](A)[sp].[moe](G)p.[moe](G)p.[moe]([m5C])p.[moe](A)p.d(T)[sp].d(T)[sp].d(T)[sp].d(G)[sp].d(G)[sp].d(A)[sp].d(G)[sp].d([m5C])[sp].d(A)[sp].d(T)[sp].[moe](T)p.[moe]([m5C])p.[moe](G)[sp].[moe](G)}$$$$ (last 3' nucleoside missing)” was tested, and the 3 h FOB score was 6.2 score 0-7.

In the case of “RNA1{[moe](A)[sp].[moe](G)p.[moe](T)p.[moe](A)p.[moe](T)p.d(A)[sp].d(G)[sp].d(A)[sp].d(T)[sp].d(G)[sp].d([m5C])[sp].d([m5C])[sp].d(T)[sp].d([m5C])[sp].d(T)[sp].[moe]([m5C])p.[moe]([m5C])p.[moe](T)[sp].[moe]([m5C])}$$$$ (last 3' nucleoside missing)”, the 3 h FOB score is reported as 3.3 score 0-7.

Substance “RNA1{[moe](A)[sp].[moe](G)p.[moe](T)p.[moe](G)p.[moe](G)p.d(T)[sp].d(T)[sp].d(G)[sp].d([m5C])[sp].d([m5C])[sp].d(T)[sp].d(T)[sp].d(A)[sp].d(G)[sp].d(T)[sp].[moe](A)p.[moe](T)p.[moe](T)[sp].[moe](A)}$$$$ (last 3' nucleoside missing)” has a 3 h FOB score of 6 score 0-7.

Work on “RNA1{[moe](A)[sp].[moe](G)p.[moe](T)p.[moe](G)p.[moe](T)p.d([m5C])[sp].d(A)[sp].d(T)[sp].d(A)[sp].d(T)[sp].d(G)[sp].d(T)[sp].d(A)[sp].d(G)[sp].d([m5C])[sp].[moe](A)p.[moe](A)p.[moe](T)[sp].[moe](T)}$$$$ (last 3' nucleoside missing)” yielded a 3 h FOB score of 4 score 0-7.

“RNA1{[moe](A)[sp].[moe](G)p.[moe](T)p.[moe](G)p.[moe]([m5C])p.d([m5C])[sp].d(T)[sp].d(T)[sp].d(T)[sp].d([m5C])[sp].d(T)[sp].d(A)[sp].d(T)[sp].d(T)[sp].d(T)[sp].[moe]([m5C])p.[moe](A)p.[moe](G)[sp].[moe](A)}$$$$ (last 3' nucleoside missing)” was tested, and the 3 h FOB score was 0 score 0-7.

“RNA1{[moe](A)[sp].[moe](G)p.[moe](T)p.[moe](T)p.[moe](T)p.d(T)[sp].d([m5C])[sp].d(G)[sp].d([m5C])[sp].d([m5C])[sp].d([m5C])[sp].d(G)[sp].d(T)[sp].d(T)[sp].d(A)[sp].[moe]([m5C])p.[moe]([m5C])p.[moe](T)[sp].[moe]([m5C])}$$$$ (last 3' nucleoside missing)” was tested, and the 3 h FOB score was 4 score 0-7.

For “RNA1{[moe](A)[sp].[moe](G)p.[moe](T)p.[moe]([m5C])p.[moe](T)p.d(T)[sp].d([m5C])[sp].d(A)[sp].d(T)[sp].d(T)[sp].d(A)[sp].d(T)[sp].d(T)[sp].d([m5C])[sp].d(T)[sp].[moe]([m5C])p.[moe](T)p.[moe](A)[sp].[moe](G)}$$$$ (last 3' nucleoside missing)”, the 3 h FOB score was 1 score 0-7.

“RNA1{[moe](A)[sp].[moe](G)p.[moe]([m5C])p.[moe](T)p.[moe](A)p.d(T)[sp].d([m5C])[sp].d(T)[sp].d(G)[sp].d(T)[sp].d(A)[sp].d([m5C])[sp].d(A)[sp].d(A)[sp].d(A)[sp].[moe](A)p.[moe](T)p.[moe](G)[sp].[moe](G)}$$$$ (last 3' nucleoside missing)” showed a 3 h FOB score of 4 score 0-7.

“RNA1{[moe](A)[sp].[moe](G)p.[moe]([m5C])p.[moe](T)p.[moe](T)p.d(T)[sp].d(A)[sp].d(G)[sp].d(T)[sp].d(A)[sp].d(T)[sp].d(G)[sp].d(T)[sp].d([m5C])[sp].d(G)[sp].[moe](A)p.[moe](G)p.[moe](A)[sp].[moe](A)}$$$$ (last 3' nucleoside missing)” showed a 3 h FOB score of 4.2 score 0-7.

“RNA1{[moe](A)[sp].[moe](G)p.[moe]([m5C])p.[moe](T)p.[moe]([m5C])p.d(A)[sp].d([m5C])[sp].d(T)[sp].d(G)[sp].d(A)[sp].d(A)[sp].d(A)[sp].d(G)[sp].d(A)[sp].d([m5C])[sp].[moe](A)p.[moe]([m5C])p.[moe](A)[sp].[moe](A)}$$$$ (last 3' nucleoside missing)” was tested, and the 3 h FOB score was 5 score 0-7.

In the case of “RNA1{[moe](A)[sp].[moe](G)p.[moe]([m5C])p.[moe]([m5C])[sp].d(A)[sp].d(G)[sp].d(G)[sp].d(T)[sp].d(G)[sp].d(T)[sp].d([m5C])[sp].d(T)[sp].[moe](T)p.[moe](A)p.[moe](T)p.[moe](A)[sp].[moe](T)}$$$$ (last 3' nucleoside missing)”, the 3 h FOB score is reported as 6 score 0-7.

In the case of “RNA1{[moe](A)[sp].[moe](G)p.[moe]([m5C])p.[moe]([m5C])p.[moe](A)[sp].d(G)[sp].d(G)[sp].d(T)[sp].d(G)[sp].d(T)[sp].d([m5C])[sp].d(T)[sp].d(T)[sp].[moe](A)p.[moe](T)p.[moe](A)[sp].[moe](T)}$$$$ (last 3' nucleoside missing)”, the 3 h FOB score is reported as 6 score 0-7.

With “RNA1{[moe](A)[sp].[moe](G)p.[moe]([m5C])p.[moe]([m5C])p.[moe](A)p.[moe](G)[sp].d(G)[sp].d(T)[sp].d(G)[sp].d(T)[sp].d([m5C])[sp].d(T)[sp].d(T)[sp].d(A)[sp].[moe](T)p.[moe](A)[sp].[moe](T)}$$$$ (last 3' nucleoside missing)” the 3 h FOB score was 0 score 0-7.

“RNA1{[moe](A)[sp].[moe](G)p.[moe]([m5C])p.[moe]([m5C])p.[moe](A)p.[moe](G)p.d(G)[sp].d(T)[sp].d(G)[sp].d(T)[sp].d([m5C])[sp].d(T)[sp].d(T)[sp].d(A)[sp].d(T)[sp].d(A)[sp].[moe](T)p.[moe]([m5C])[sp].[moe](T)}$$$$ (last 3' nucleoside missing)” was tested, and the 3 h FOB score was 0 score 0-7.
